Like-named read-outs stand apart in the source and are kept apart here.
Columns and labels:
p99 AmpC = target: T1, p99 AmpC (Enterobacter cloacae, UniProt P05364); assay: β-Lactamase inhibition, p99 AmpC (nitrocefin substrate); type: biochemical
T1 construct: made in house; host or cells: E. coli BL21 (DE3)
Description: (§1) For SHV-5, Kpc-2, p99AmpC and OXA-1 β-lactamases, E. coli BL21 (DE3) bacterial cells carrying expression plasmids (expressed as native untagged proteins) for the individual β-lactamases were grown in 1 L of Superbroth (Teknova Inc. Hollister, Calif.) supplemented with 100 μg/ml kanamycin selection and 1×5052 (0.5% glycerol, 0.05% glucose and 0.2% α-lactose) at 35° C. for 18-20 hours. Cells were harvested by centrifugation (4,000×g, 4° C., 20 min), resuspended in 50 ml of 10 mM HEPES pH 7.5 ( 1/20 of the initial volume). The cells were lysed by sonication (5 pulses of 45 seconds) at 45 W on ice. The lysates were clarified by centrifugation at 10,000×g for 40 minutes at 4° C. Samples were diluted 5-fold in 50 mM sodium acetate pH 5.0, stored overnight at 4° C., after which they were centrifuged at 10,000×g for 30 minutes to clarify, and filtered through 0.45 µm filters. The samples were loaded onto a 5 ml Capto S sepharose cation exchange column (GE Healthcare) pre-equilibrated with 50 mM sodium acetate pH 5.0. The column was washed with 5 column volumes of 50 mM sodium acetate pH 5.0 to wash out unbound protein and a linear gradient of NaCl (0 to 500 mM) was used to elute the protein (over 16 CV) from the column. Fractions were assayed for β-lactamase activity using Centa (Calbiochem, Gibbstown, N.J.) or Nitrocefin (EMD Millipore chemicals, Darmstadt, Germany) as a reporter β-lactamase substrate for activity in the isolated fractions. Active fractions were pooled, concentrated and further purified by gel filtration chromatography on a Superdex 75 prep grade gel filtration column (GE Healthcare, Piscataway, N.J.) pre-equilibrated in 50 mM Hepes pH 7.5, 150 mM NaCl. Active fractions were pooled concentrated, quantitated by BCA protein determination (Thermo Scientific, Rockford, Ill.), dialyzed into PBS and frozen at −80° C. in 20% glycerol until use.
(§2) An equal volume of diluted enzyme stock was added, and the plates were incubated at 37° C. for 15 min. Nitrocefin was used as substrate for p99 AmpC, VIM-2 and OXA-1 and dispensed into each well at a final concentration of 100 μM. Absorbance at 486 nm was immediately monitored for 10 min using a Biotek Powerwave XS2 microplate spectrophotometer using the GEN5 software package (Biotek Instruments, Winooski Vt.). In an analogous fashion, imipenem was used as substrate for Kpc-2 and Cefotaxime was used for SHV-5, while changes in absorbance upon hydrolysis of the β-lactam ring were monitored at 300 nm and 260 nm respectively in UV-transparent 96-well microtiter assay plates. Maximum rates of hydrolysis were compared to those in control wells (without inhibitors), and percentages of enzyme inhibition were calculated for each concentration of inhibitor. The concentration of inhibitor needed to reduce the initial rate of hydrolysis of substrate by 50% (IC50) was calculated as the residual activity of β-lactamase at 486 nm using GraFit version 7 kinetics software package (Erithacus Software, Surrey, UK).
Using the methodology described above, examples of the current invention were evaluated for their ability to inhibit β-lactamase enzymes from all four Ambler classifications (A through D). […] NT=Not tested.

E. coli ESBL4 CTX-M-15 = assay: Broth microdilution MIC, E. coli ESBL4; type: cell-based; settings: fixed ceftazidime 4 μg/mL, CAMHB, 16-20 hours 37° C.; for MIC: Escherichia coli, ESBL4CTXM15, read-out: MIC of exemplary compounds in presence of fixed β-lactams, Fixed CAZ, E. coli ESBL4 CTX-M-15
Summary of the method: (§3)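 Potentiation MIC: the lowest test compound concentration inhibiting visible growth in cation-adjusted Mueller Hinton broth containing a β-lactam at a static 4 μg/ml. Compound range was 32–0.25 μg/mL; incubation lasted 16-20 hours at 37° C.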

E. cl 144200 p99 AmpC = assay: Broth microdilution MIC, E. cloacae 144200; type: cell-based; settings: fixed ceftazidime 4 μg/mL, CAMHB, 16-20 hours 37° C.; for MIC: Enterobacter cloacae, read-out: MIC of exemplary compounds in presence of fixed β-lactams, Fixed CAZ, E. cl 144200 p99 AmpC
Summary of the method: as §3

K.P. 156319 KPC-3 = assay: Broth microdilution MIC, K. pneumoniae 156319; type: cell-based; settings: fixed meropenem 4 μg/mL, CAMHB, 16-20 hours 37° C.; for MIC: Klebsiella pneumoniae, read-out: MIC of exemplary compounds in presence of fixed β-lactams, Fixed Mero, K.P. 156319 KPC-3
P. aerug. Ps296 VIM-2 = assay: Broth microdilution MIC, P. aeruginosa Ps296; type: cell-based; settings: fixed meropenem 4 μg/mL, CAMHB, 16-20 hours 37° C.; for MIC: Pseudomonas aeruginosa, read-out: MIC of exemplary compounds in presence of fixed β-lactams, Fixed Mero, P. aerug. Ps296 VIM-2
Summary of the method: as §3

K.P. A-1797 KPC-2 VIM-4 = assay: Broth microdilution MIC, K. pneumoniae A-1797; type: cell-based; settings: fixed meropenem 4 μg/mL, CAMHB, 16-20 hours 37° C.; for MIC: Klebsiella pneumoniae, read-out: MIC of exemplary compounds in presence of fixed β-lactams, Fixed Mero, K.P. A-1797 KPC-2 VIM-4
S. aureus MSSA-7 PC-1 = assay: Broth microdilution MIC, S. aureus MSSA-7; type: cell-based; settings: Staphylococcus aureus, fixed piperacillin 4 μg/mL, CAMHB, 16-20 hours 37° C., read-out: MIC of exemplary compounds in presence of fixed β-lactams, Fixed Pip, S. aureus MSSA-7 PC-1
SHV-5 = target: T2, SHV-5 (Klebsiella pneumoniae, UniProt P0A3M1); assay: β-Lactamase inhibition, SHV-5 (cefotaxime substrate); type: biochemical
T2 construct: made in house; host or cells: E. coli BL21 (DE3)
Description: as §1, with “The column was washed with 5 column volumes of 50 mM sodium acetate pH 5.0 to wash out unbound protein and a linear gradient of NaCl (0 to 500 mM) was used to elute the protein (over 16 CV) from the column. Fractions were assayed for β-lactamase activity using Centa (Calbiochem, Gibbstown, N.J.) or Nitrocefin (EMD Millipore chemicals, Darmstadt, Germany) as a reporter β-lactamase substrate for activity in the isolated fractions. Active fractions were pooled, concentrated and further purified by gel filtration chromatography on a Superdex 75 prep grade gel filtration column (GE Healthcare, Piscataway, N.J.) pre-equilibrated in 50 mM Hepes pH 7.5, 150 mM NaCl.” left out
as §2, with “Nitrocefin was used as substrate for p99 AmpC, VIM-2 and OXA-1 and dispensed into each well at a final concentration of 100 μM.” left out, “The concentration of inhibitor needed to reduce the initial rate of hydrolysis of substrate by 50% (IC50) was calculated as the residual activity of β-lactamase at 486 nm using GraFit version 7 kinetics software package (Erithacus Software, Surrey, UK).” left out

KPC-2 = target: T3, KPC-2 (Klebsiella pneumoniae, UniProt Q9F663); assay: β-Lactamase inhibition, KPC-2 (imipenem substrate); type: biochemical
T3 construct: made in house; host or cells: E. coli BL21 (DE3)
Description: as §1, with “The column was washed with 5 column volumes of 50 mM sodium acetate pH 5.0 to wash out unbound protein and a linear gradient of NaCl (0 to 500 mM) was used to elute the protein (over 16 CV) from the column. Fractions were assayed for β-lactamase activity using Centa (Calbiochem, Gibbstown, N.J.) or Nitrocefin (EMD Millipore chemicals, Darmstadt, Germany) as a reporter β-lactamase substrate for activity in the isolated fractions. Active fractions were pooled, concentrated and further purified by gel filtration chromatography on a Superdex 75 prep grade gel filtration column (GE Healthcare, Piscataway, N.J.) pre-equilibrated in 50 mM Hepes pH 7.5, 150 mM NaCl.” left out
as §2, with “Nitrocefin was used as substrate for p99 AmpC, VIM-2 and OXA-1 and dispensed into each well at a final concentration of 100 μM.” left out, “The concentration of inhibitor needed to reduce the initial rate of hydrolysis of substrate by 50% (IC50) was calculated as the residual activity of β-lactamase at 486 nm using GraFit version 7 kinetics software package (Erithacus Software, Surrey, UK).” left out

VIM-2 = target: T4, VIM-2 (Escherichia coli, UniProt Q5U7L7); assay: β-Lactamase inhibition, VIM-2 (nitrocefin substrate); type: biochemical
T4 construct: made in house; host or cells: E. coli BL21 (DE3)
Description: as §1, with “The column was washed with 5 column volumes of 50 mM sodium acetate pH 5.0 to wash out unbound protein and a linear gradient of NaCl (0 to 500 mM) was used to elute the protein (over 16 CV) from the column. Fractions were assayed for β-lactamase activity using Centa (Calbiochem, Gibbstown, N.J.) or Nitrocefin (EMD Millipore chemicals, Darmstadt, Germany) as a reporter β-lactamase substrate for activity in the isolated fractions. Active fractions were pooled, concentrated and further purified by gel filtration chromatography on a Superdex 75 prep grade gel filtration column (GE Healthcare, Piscataway, N.J.) pre-equilibrated in 50 mM Hepes pH 7.5, 150 mM NaCl.” left out, “use. […]” for “use.”
as §2, with “Nitrocefin was used as substrate for p99 AmpC, VIM-2 and OXA-1 and dispensed into each well at a final concentration of 100 μM.” left out, “The concentration of inhibitor needed to reduce the initial rate of hydrolysis of substrate by 50% (IC50) was calculated as the residual activity of β-lactamase at 486 nm using GraFit version 7 kinetics software package (Erithacus Software, Surrey, UK).” left out

OXA-1 = target: T5, OXA-1 (Escherichia coli, UniProt P13661); assay: β-Lactamase inhibition, OXA-1 (nitrocefin substrate); type: biochemical
T5 construct: made in house; host or cells: E. coli BL21 (DE3)
Description: as §1, with “The column was washed with 5 column volumes of 50 mM sodium acetate pH 5.0 to wash out unbound protein and a linear gradient of NaCl (0 to 500 mM) was used to elute the protein (over 16 CV) from the column. Fractions were assayed for β-lactamase activity using Centa (Calbiochem, Gibbstown, N.J.) or Nitrocefin (EMD Millipore chemicals, Darmstadt, Germany) as a reporter β-lactamase substrate for activity in the isolated fractions. Active fractions were pooled, concentrated and further purified by gel filtration chromatography on a Superdex 75 prep grade gel filtration column (GE Healthcare, Piscataway, N.J.) pre-equilibrated in 50 mM Hepes pH 7.5, 150 mM NaCl.” left out
as §2, with “Nitrocefin was used as substrate for p99 AmpC, VIM-2 and OXA-1 and dispensed into each well at a final concentration of 100 μM.” left out, “The concentration of inhibitor needed to reduce the initial rate of hydrolysis of substrate by 50% (IC50) was calculated as the residual activity of β-lactamase at 486 nm using GraFit version 7 kinetics software package (Erithacus Software, Surrey, UK).” left out

[1] = nitrocefin 100 μM, 486 nm, 15 min preincubation 37° C., PBS pH 7.4, read-out: IC50 AmpC (Class C)

T1 sequence (P05364 21-381): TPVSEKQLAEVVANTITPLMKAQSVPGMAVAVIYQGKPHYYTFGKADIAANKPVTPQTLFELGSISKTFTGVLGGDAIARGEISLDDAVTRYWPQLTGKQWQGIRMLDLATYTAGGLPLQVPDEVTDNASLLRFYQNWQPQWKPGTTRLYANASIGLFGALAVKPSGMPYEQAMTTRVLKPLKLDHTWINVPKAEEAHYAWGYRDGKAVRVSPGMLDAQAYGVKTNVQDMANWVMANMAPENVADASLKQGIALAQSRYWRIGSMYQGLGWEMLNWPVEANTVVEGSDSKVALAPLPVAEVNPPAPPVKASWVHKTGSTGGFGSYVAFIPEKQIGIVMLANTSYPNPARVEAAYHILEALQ
T5 sequence (P13661 26-276): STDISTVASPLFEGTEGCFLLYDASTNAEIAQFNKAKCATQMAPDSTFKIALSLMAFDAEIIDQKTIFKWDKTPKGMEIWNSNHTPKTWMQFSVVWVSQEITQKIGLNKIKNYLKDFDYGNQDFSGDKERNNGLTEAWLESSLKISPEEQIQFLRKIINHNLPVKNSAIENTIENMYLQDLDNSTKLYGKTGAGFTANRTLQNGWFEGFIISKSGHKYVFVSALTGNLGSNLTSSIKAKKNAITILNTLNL
T3 sequence (Q9F663 25-293 limits assumed): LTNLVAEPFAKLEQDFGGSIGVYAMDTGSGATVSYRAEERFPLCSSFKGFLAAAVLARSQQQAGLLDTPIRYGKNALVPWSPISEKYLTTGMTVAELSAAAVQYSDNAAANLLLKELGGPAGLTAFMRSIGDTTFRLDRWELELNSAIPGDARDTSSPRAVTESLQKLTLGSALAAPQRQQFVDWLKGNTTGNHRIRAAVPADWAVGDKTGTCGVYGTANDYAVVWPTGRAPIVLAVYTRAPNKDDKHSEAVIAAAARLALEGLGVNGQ
T2 sequence (P0A3M1 22-286): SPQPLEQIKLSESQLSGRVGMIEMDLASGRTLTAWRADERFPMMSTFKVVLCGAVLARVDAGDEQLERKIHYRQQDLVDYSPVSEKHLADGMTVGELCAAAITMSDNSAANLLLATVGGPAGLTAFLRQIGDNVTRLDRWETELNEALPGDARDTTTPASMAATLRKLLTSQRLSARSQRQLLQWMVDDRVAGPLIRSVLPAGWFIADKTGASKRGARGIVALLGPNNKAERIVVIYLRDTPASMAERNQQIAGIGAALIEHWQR

SMILES	IC50 (p99 AmpC; [1]) [µM]	MIC (E. coli ESBL4 CTX-M-15) [µg/mL]	MIC (E. cl 144200 p99 AmpC) [µg/mL]	MIC (K.P. 156319 KPC-3) [µg/mL]	MIC (P. aerug. Ps296 VIM-2) [µg/mL]	MIC (K.P. A-1797 KPC-2 VIM-4) [µg/mL]	MIC (S. aureus MSSA-7 PC-1) [µg/mL]	IC50 (SHV-5) [µM]	IC50 (KPC-2) [µM]	IC50 (VIM-2) [µM]	IC50 (p99 AmpC) [µM]	IC50 (OXA-1) [µM]	MIC of exemplary compounds in presence of fixed β-lactams, Fixed CAZ, E. coli ESBL4 CTX-M-15 (E. coli ESBL4 CTX-M-15)	MIC of exemplary compounds in presence of fixed β-lactams, Fixed CAZ, E. cl 144200 p99 AmpC (E. cl 144200 p99 AmpC)	MIC of exemplary compounds in presence of fixed β-lactams, Fixed Mero, K.P. 156319 KPC-3 (K.P. 156319 KPC-3)	MIC of exemplary compounds in presence of fixed β-lactams, Fixed Mero, P. aerug. Ps296 VIM-2 (P. aerug. Ps296 VIM-2)	MIC of exemplary compounds in presence of fixed β-lactams, Fixed Mero, K.P. A-1797 KPC-2 VIM-4 (K.P. A-1797 KPC-2 VIM-4)
O=C(CC1CCC(NC2CNC2)CC1)N[C@H]1Cc2cccc(C(=O)O)c2OB1O (stereo partly drawn) [Example 36, (3R)-3-(2-(4-(azetidin-3-ylamino)cyclohexyl)acetamido)-2-hydroxy-3,4-dihydro-2H-benzo[e][1,2]oxaborinine-8-carboxylic acid]	< 0.1	< 4	< 4	< 4	< 4	8 to 32	< 4										
N[C@H]1CC(C(=O)N[C@H]2Cc3cccc(C(=O)O)c3OB2O)C[C@@H]1N (mixture of isomers) [Example 19, (3R)-3-[[(3S,4S)-3,4-diaminocyclopentanecarbonyl]amino]-2-hydroxy-3,4-dihydro-1,2-benzoxaborinine-8-carboxylic acid and (3R)-3-[[(3R,4R)-3,4-diaminocyclopentanecarbonyl]amino]-2-hydroxy-3,4-dihydro-1,2-benzoxaborinine-8-carboxylic acid]								0.1 to 1	< 0.1	< 0.1	< 0.1	< 0.1	C (C represents the MIC in the presence of <4 μg/mL of a β-lactamase inhibitor of exemplary compounds)	C (C represents the MIC in the presence of <4 μg/mL of a β-lactamase inhibitor of exemplary compounds)	C (C represents the MIC in the presence of <4 μg/mL of a β-lactamase inhibitor of exemplary compounds)	C (C represents the MIC in the presence of <4 μg/mL of a β-lactamase inhibitor of exemplary compounds)	C (C represents the MIC in the presence of <4 μg/mL of a β-lactamase inhibitor of exemplary compounds)
N=C(N)N1CCN([C@H]2CC[C@H](CC(=O)N[C@H]3Cc4cccc(C(=O)O)c4OB3O)CC2)CC1 [Example 24, (R)-3-(2-(trans-4-(4-carbamimidoylpiperazin-1-yl)cyclohexyl)acetamido)-2-hydroxy-3,4-dihydro-2H-benzo[e][1,2]oxaborinine-8-carboxylic acid]	< 0.1	< 4	< 4	< 4	8 to 32	< 4	< 4										
N[C@@H]1CC[C@@H](C(=O)N[C@H]2Cc3cccc(C(=O)O)c3OB2O)C[C@H]1N (mixture of isomers) [Example 20, (3R)-3-[[(1S,3S,4S)-3,4-diaminocyclohexanecarbonyl]amino]-2-hydroxy-3,4-dihydro-1,2-benzoxaborinine-8-carboxylic acid and (3R)-3-[[(1R,3R,4R)-3,4-diaminocyclohexanecarbonyl]amino]-2-hydroxy-3,4-dihydro-1,2-benzoxaborinine-8-carboxylic acid]								1 to 10	0.1 to 1	< 0.1	< 0.1	0.1 to 1	C (C represents the MIC in the presence of <4 μg/mL of a β-lactamase inhibitor of exemplary compounds)	C (C represents the MIC in the presence of <4 μg/mL of a β-lactamase inhibitor of exemplary compounds)	C (C represents the MIC in the presence of <4 μg/mL of a β-lactamase inhibitor of exemplary compounds)	C (C represents the MIC in the presence of <4 μg/mL of a β-lactamase inhibitor of exemplary compounds)	B (B represents the MIC in the presence of between 8 and 32 μg/mL of a β-lactamase inhibitor of exemplary compounds)

From patent US10669290B2, “Beta-lactamase inhibitors” (priority 2012, dated 2020)
